Results as given in patent US8119672B2, “Compounds, compositions and methods for treating or preventing pneumovirus infection and associated diseases” (Microdose Therapeutx, Inc., priority 2002, dated 2012).

Assay: Solubility in ethanol/propylene glycol/water (85:10:5)
Format: physicochemical
Conditions: R1 in meta position (compound of the invention); ethanol/propylene glycol/water (85:10:5) by volume
Experimental: The solubilities are measured in ethanol/propylene glycol/water (85:10:5) (proportions are by volume).
With Cc1nnnn1N=Cc1ccc(O)c(C(c2cccc(N(C)C)c2)c2cc(C=Nn3nnnc3C)ccc2O)c1 (stereo not drawn) [Example 2, 2,2′-[[(3-Dimethylamino)phenyl]methylene]bis[4-[[(5-methyl-1H-tetrazol-1-yl)imino]methyl]]phenol] the “Meta Position Solubiity” value was 2.10 mg/mL.
With CCCc1cccc(C(c2cc(C=Nn3nnnc3C)ccc2O)c2cc(C=Nn3nnnc3C)ccc2O)c1 (stereo not drawn) [Example 1, 2,2′-[(3-Propylphenyl)methylene]bis[4-[[(5-methyl-1H-tetrazol-1-yl)imino]methyl]]phenol] the “Meta Position Solubiity” value was 1.9 mg/mL.
With CCN(CC)c1cccc(C(c2cc(C=Nn3nnnc3C)ccc2O)c2cc(C=Nn3nnnc3C)ccc2O)c1 (stereo not drawn) [Example 20, 2,2′-[[(3-Diethylamino)phenyl]methylene]bis[4-[[(5-methyl-1H-tetrazol-1-yl)imino]methyl]]phenol] the “Meta Position Solubiity” value was 1.45 mg/mL.
With “3-[[Bis[[5-(5-methyl-1H-tetrazol-1-yl)imino]methyl]-2-hydroxyphenyl]methylene] -N,N-dimethylbenzenesulfonamide [Example 31]” the “Meta Position Solubiity” value was 0.08 mg/mL.
In the case of CCOc1cccc(C(c2cc(C=Nn3nnnc3C)ccc2O)c2cc(C=Nn3nnnc3C)ccc2O)c1 (stereo not drawn) [Example 6, 2,2′-[(3-Ethoxyphenyl)methylene]bis[4-[[(5-methyl-1H-tetrazol-1-yl)imino]methyl]]phenol], the “Meta Position Solubiity” value is reported as 1.85 mg/mL.
With Cc1nnnn1N=Cc1ccc(O)c(C(c2cccc([N+](=O)[O-])c2)c2cc(C=Nn3nnnc3C)ccc2O)c1 (stereo not drawn) [Example 27, 2,2′-[(3-Nitrophenyl)methylene]bis[4-[[(5-methyl-1H-tetrazol-1-yl)imino]methyl]]phenol] the “Meta Position Solubiity” value was 0.98 mg/mL.
